Source: patent EP4725957A1, “GROUP OF CYCLIC ALKALINE LIPOPEPTIDE COMPOUNDS, AND PREPARATION METHOD THEREFOR AND USE THEREOF” (Institute of Medicinal Biotechnology, Chinese Academy of …, priority 2023, dated 2024)
≈ marks a conversion by molar mass, not a printed value. Bridge positions count the residues as written; N and C are the ends. Square brackets hold non-standard residues; d marks the D form. Peptide text beside a SMILES is read from it. * marks the point of attachment. Heptanoyl(6-Me) = CC(C)CCCCC(=O)*; Sulfomethyl = O=S(=O)(O)C*; Nonanoyl = CCCCCCCCC(=O)*; dDab = NCC[C@@H](N)C(=O)O; Heptanoyl = CCCCCCC(=O)*; Octanoyl = CCCCCCCC(=O)*; Orn = NCCC[C@H](N)C(=O)O; Dab = NCC[C@H](N)C(=O)O

Experiments:
Type in all cases: cell-based
[1] = Nephrotoxicity assay: in vitro cytotoxicity of HK-2 cells by CCK-8 assay; details: human, HK-2 cells (human renal), 72 h incubation with drug-containing medium
How it was run: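 Compounds in sterile water, diluted to final 500, 250, 200, 100, 50, 25 and 12.5 µg/mL, were applied for 72 h to human HK-2 kidney cells. Absorbance at 450 nm after 3 h CCK-8 gave viability against untreated wells, and IC50 came from logarithmic regression; three replicates.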

[2] = test system: Escherichia coli ATCC BAA-2340 (KPC); details: ATCC BAA-2340
How it was run: (§1)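 The MIC value comes from CLSI broth microdilution after 16-20 h at 35-37°C. Cyclic lipopeptides in Mueller-Hinton broth spanned 64 to 0.03 mg/L final, with each well carrying (2-4) × 10^5 CFU/mL.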

[3] = test system: Klebsiella pneumoniae ATCC BAA-1705 (KPC); details: ATCC BAA-1705
How it was run: as §1

[4] = test system: Acinetobacter baumannii NCTC 13304 (OXA-27); details: NCTC 13304
How it was run: as §1

[5] = test system: Klebsiella pneumoniae KPN+19-15; details: KPN+19-15
How it was run: as §1

[6] = test system: Pseudomonas aeruginosa PAE19-3; details: PAE19-3
How it was run: as §1

[7] = test system: Acinetobacter baumannii ABA19-1; details: ABA19-1
How it was run: as §1

[8] = test system: Pseudomonas aeruginosa ATCC 27853; details: ATCC 27853
How it was run: as §1

[9] = test system: Escherichia coli ATCC BAA-2523; details: ATCC BAA-2523
How it was run: as §1

| Structure (SMILES) | IC50 at 72 h [1] [µg/mL] | MIC [2] [µg/mL] | MIC [3] [µg/mL] | MIC [4] [µg/mL] | MIC [5] [µg/mL] | MIC [6] [µg/mL] | MIC [7] [µg/mL] | MIC [8] [µg/mL] | MIC [9] [µg/mL] |
| --- | --- | --- | --- | --- | --- | --- | --- | --- | --- |
| CCCCCCCC(=O)N[C@@H](CCN)C(=O)N[C@H](C(=O)N[C@@H](CCN)C(=O)N[C@H]1CCNC(=O)[C@H]([C@@H](C)O)NC(=O)[C@H](CCN)NC(=O)[C@H](CCN)NC(=O)[C@H]([C@@H](C)O)NC(=O)[C@@H](Cc2ccccc2)NC(=O)[C@H](CCN)NC1=O)[C@@H](C)O [Compound 18, Octanoyl-Dab-Thr-Dab-ring(4-10)[Dab-Dab-D-Phe-Thr-Dab-Dab-Thr]] (Octanoyl-[Dab]T[Dab][Dab][Dab][dF]T[Dab][Dab]T; lactam 4-C) | > 500 | 0.06 (≈ 0.051 µM) | 0.5 (≈ 0.425 µM) | 0.25 (≈ 0.212 µM) | ≤0.03 | 0.5 (≈ 0.425 µM) | 0.5 (≈ 0.425 µM) | 0.5 (≈ 0.425 µM) | ≤0.03 |
| CCCCCCCCC(=O)N[C@@H](CCN)C(=O)N[C@H](C(=O)N[C@H](CCN)C(=O)N[C@H]1CCNC(=O)[C@H]([C@@H](C)O)NC(=O)[C@H](CCN)NC(=O)[C@H](CCN)NC(=O)[C@H]([C@@H](C)O)NC(=O)[C@@H](Cc2ccccc2)NC(=O)[C@H](CCN)NC1=O)[C@@H](C)O [Compound 15, Nonanoyl-Dab-Thr-D-Dab-ring(4-10)[Dab-Dab-D-Phe-Thr-Dab-Dab-Thr]] (Nonanoyl-[Dab]T[dDab][Dab][Dab][dF]T[Dab][Dab]T; lactam 4-C) | 320 ± 31.5 (≈ 269 µM) | 0.06 (≈ 0.0504 µM) | 0.06 (≈ 0.0504 µM) | 0.06 (≈ 0.0504 µM) | 0.06 (≈ 0.0504 µM) | 2 (≈ 1.68 µM) | 0.06 (≈ 0.0504 µM) | 2 (≈ 1.68 µM) | 0.06 (≈ 0.0504 µM) |
| CC(C)CCCCC(=O)N[C@@H](CCN)C(=O)N[C@H](C(=O)N[C@H](CO)C(=O)N[C@H]1CCNC(=O)[C@H]([C@@H](C)OCS(=O)(=O)O)NC(=O)[C@H](CCN)NC(=O)[C@H](CCN)NC(=O)[C@H]([C@@H](C)O)NC(=O)[C@@H](Cc2ccccc2)NC(=O)[C@H](CCN)NC1=O)[C@@H](C)O [Compound 106, 6-methylheptanoyl-Dab-Thr-D-Ser-ring(4-10)[Dab-Dab-D-Phe-Thr-Dab-Dab-Thr(CH2SO3H)]] ({Heptanoyl(6-Me)}-[Dab]T[dS][Dab][Dab][dF]T[Dab][Dab]T(Sulfomethyl); lactam 4-C) | > 500 | 0.03 (≈ 0.0238 µM) | 0.125 (≈ 0.0993 µM) | 0.06 (≈ 0.0477 µM) | 0.125 (≈ 0.0993 µM) | 0.25 (≈ 0.199 µM) | 0.06 (≈ 0.0477 µM) | 0.25 (≈ 0.199 µM) | 0.03 (≈ 0.0238 µM) |
| CCCCCCC(=O)N[C@@H](CCN)C(=O)N[C@H](C(=O)N[C@@H](CCN)C(=O)N[C@H]1CCNC(=O)[C@H]([C@@H](C)O)NC(=O)[C@H](CCN)NC(=O)[C@H](CCN)NC(=O)[C@H]([C@@H](C)O)NC(=O)[C@@H](Cc2ccccc2)NC(=O)[C@H](CCN)NC1=O)[C@@H](C)O [Compound 19, Heptanoyl-Dab-Thr-Dab-ring(4-10)[Dab-Dab-D-Phe-Thr-Dab-Dab-Thr]] (Heptanoyl-[Dab]T[Dab][Dab][Dab][dF]T[Dab][Dab]T; lactam 4-C) | > 500 | 0.03 (≈ 0.0258 µM) | 0.06 (≈ 0.0516 µM) | 0.25 (≈ 0.215 µM) | 0.03 (≈ 0.0258 µM) | 2 (≈ 1.72 µM) | 0.5 (≈ 0.43 µM) | 2 (≈ 1.72 µM) | 0.03 (≈ 0.0258 µM) |
| CC(C)CCCCC(=O)N[C@@H](CCN)C(=O)N[C@H](C(=O)N[C@H](CO)C(=O)N[C@H]1CCNC(=O)[C@H]([C@@H](C)O)NC(=O)[C@H](CCN)NC(=O)[C@H](CCCN)NC(=O)[C@H]([C@@H](C)O)NC(=O)[C@@H](Cc2ccccc2)NC(=O)[C@H](CCN)NC1=O)[C@@H](C)O [Compound 77, 6-methylheptanoyl-Dab-Thr-D-Ser-ring(4-10)[Dab-Dab-D-Phe-Thr-Orn-Dab-Thr]] ({Heptanoyl(6-Me)}-[Dab]T[dS][Dab][Dab][dF]T[Orn][Dab]T; lactam 4-C) | > 500 | ≤0.03 | 0.25 (≈ 0.212 µM) | ≤0.03 | 0.5 (≈ 0.424 µM) | 64 (≈ 54.3 µM) | 0.06 (≈ 0.0509 µM) | >64 | ≤0.03 |
